Reference: publication PMC12363342, “Investigating the N-terminal linker histone H1 subtypes as substrates for JmjC lysine demethylases” (RSC Chemical Biology, 2025)
Square brackets hold non-standard residues; d marks the D form. Ends that are not written are not given here. Lys(Me3) = C[N+](C)(C)CCCC[C@H](N)C(=O)O; Lys(Me2) = CN(C)CCCC[C@H](N)C(=O)O

Tests used:
KDM5D = test: LC-MS demethylation activity assay, KDM5D; assay type: biochemical, human; settings: 2 μM KDM, 10 μM H1/H3 peptide, 10 μM FAS, 100 μM LAA, 20 μM 2OG, 50 mM HEPES pH 7.5, 2 h, room temperature
Protocol: (§1) The substrate specificity of JmjC KDMs for H1 was examined using liquid chromatography coupled to mass spectrometry (LC-MS) assays. The H1 peptides (10 μM) were incubated with the recombinant KDM (2 μM) in HEPES buffer at pH 7.5 at room temperature for 2 h, in the presence of ferrous(II) ammonium sulfate (FAS, 10 μM), sodium ascorbate (LAA, 100 μM) and 2OG (20 μM), and then quenched with formic acid. N^ε-Methylated H3K9 and H3K36 peptides were used as positive controls (Fig. 3–5 and Fig. S2–S6).[26]
(§2) The catalytic domains of the JmjC KDMs used were recombinantly produced as reported in either Escherichia coli (KDM4AM1-L359,[38] KDM4DM1-L359,[39] KDM4EM1-R336,[30] KDM6BD1141–E1590[40] and KDM3CL2157-L2500) or Sf9 cells (KDM3AT515–S1317, KDM3B882–1761, and KDM5DM1-D775) as N-terminally His6-tagged proteins. […] To produce proteins, DNA sequences encoding for KDM3A, KDM3B and KDM5D were inserted into the pFB-LIC vector, containing a TEV-protease cleavable N-terminal 6x-histidine tag via ligation independent cloning (LIC). The resultant plasmids were transformed into baculovirus and Sf9 cells ([…]) which were infected with the virus stock. The cells were grown at 27 °C and 90 rpm for 70 h. Cells were then harvested and suspended in 100 mL of lysis buffer (50 mM HEPES-NaOH, pH 7.4, 500 mM NaCl, 20 mM imidazole, 0.5 mM Tris (2-carboxyethyl)phosphine (TCEP), 5% (v/v) glycerol). […] The supernatant was loaded onto a Ni-NTA gravity column, washed with 10 column volume of lysis buffer and eluted using the elution buffer (50 mM HEPES-NaOH, pH 7.4, 500 mM NaCl, 300 mM imidazole, 0.5 mM TCEP, 5% (v/v) glycerol). The eluted protein was further purified using S200 gel filtration column chromatography (50 mM HEPES-NaOH, pH 7.4, 150 mM NaCl, 0.5 mM TCEP and 5% glycerol). Protein purity was analysed by SDS-PAGE and further confirmed by mass spectrometry. Selected fractions were pooled, concentrated and stored at −80 °C.
(§3) All reagents were purchased from Sigma Aldrich and were of the highest grade available. Ferrous(II) ammonium sulfate (FAS) solutions were prepared freshly by dissolving FAS to 400 mM in 20 mM HCl with subsequent dilution to 1 mM using deionized water. Fresh 2OG (10 mM) and LAA (50 mM) solutions were prepared by dissolving the solids in deionised water. All enzyme reactions were performed in 384-well plates (Greiner Bio-One) with a final reaction volume of 50 μL. Substrate mixtures contained 50 mM HEPES pH 7.5, LAA (100 μM), FAS (10 μM), 2OG (20 μM) and an H1 isoform peptide (10 μM). Reactions were initiated by the addition of enzyme to a final concentration of 2.0 μM. After 2 h, the reactions were stopped by the addition of 5 μL of 10% (v/v) LC-MS grade formic acid (Fisher Scientific) to a final concentration of 1% (v/v). Product analyses were performed by liquid chromatography-mass spectrometry (LC-MS) using an Agilent 1290 infinity II LC system equipped with an Agilent 1290 multisampler and an Agilent 1290 high speed pump and connected to an Agilent 6550 accurate mass iFunnel quadrupole time of flight (Q-TOF) mass spectrometer. 1 μL of the reaction mixture was injected onto a 1.8 μm × 2.1 × 50 mm ZORBAX RRHD Eclipse Plus C18 column (Agilent). Solvent A consisted of HPLC grade water containing 0.1% (v/v) formic acid and solvent B consisted of MeCN containing 0.1% (v/v) formic acid. Peptides were separated using a stepwise gradient (0 min – 95% solvent A, 1.0 min – 80% solvent A, 3.0 min – 45% solvent A, 4.0 min – 45% solvent A, 5.0 min – 0% solvent A, 6.0 min – 0% solvent A, 7.0 min – 95% solvent A). This was followed by a 3 min post-run with 95% solvent A to re-equilibrate the column. All flow rates were 0.2 mL min^−1. A blank injection of HPLC grade water was carried out between each sample injection.

KDM4A = test: LC-MS demethylation activity assay, KDM4A; assay type: biochemical, human; settings: 10 μM FAS, 100 μM LAA, 20 μM 2OG, room temperature; for substrate conversion (demethylation) by KDM4A: 2 μM KDM4A, 10 μM peptide, HEPES pH 7.5, 2 h
Protocol: as §1, §2, §3

KDM4D = target: T1, KDM4D (Homo sapiens, UniProt Q6B0I6); test: LC-MS demethylation activity assay, KDM4D; assay type: biochemical; settings: room temperature
T1 construct: KDM4AM1-L359,[38]; KDM4DM1-L359,[39]; KDM4EM1-R336,[30]; His6 (N); made in house; host or cells: Escherichia coli
T1 sequence (Q6B0I6 1-359): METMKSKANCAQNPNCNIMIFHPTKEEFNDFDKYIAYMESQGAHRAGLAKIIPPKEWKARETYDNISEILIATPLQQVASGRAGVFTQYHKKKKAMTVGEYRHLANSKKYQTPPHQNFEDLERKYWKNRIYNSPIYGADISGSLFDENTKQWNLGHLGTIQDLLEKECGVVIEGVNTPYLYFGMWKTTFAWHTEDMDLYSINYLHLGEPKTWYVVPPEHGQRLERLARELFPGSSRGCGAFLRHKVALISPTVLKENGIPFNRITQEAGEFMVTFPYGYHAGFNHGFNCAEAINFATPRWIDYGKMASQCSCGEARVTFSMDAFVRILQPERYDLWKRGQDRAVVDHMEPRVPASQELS
Protocol: as §1, §2, §3

KDM4E = target: T2, KDM4E (Homo sapiens, UniProt B2RXH2); test: LC-MS demethylation activity assay, KDM4E; assay type: biochemical; settings: 10 μM FAS, 100 μM LAA, 20 μM 2OG, room temperature; for substrate conversion (demethylation) by KDM4E: 2 μM KDM4E, 10 μM peptide, HEPES pH 7.5, 2 h
T2 construct: KDM4DM1-L359,[39]; KDM4EM1-R336,[30]; His6 (N); made in house; host or cells: Escherichia coli
T2 sequence (B2RXH2 1-336): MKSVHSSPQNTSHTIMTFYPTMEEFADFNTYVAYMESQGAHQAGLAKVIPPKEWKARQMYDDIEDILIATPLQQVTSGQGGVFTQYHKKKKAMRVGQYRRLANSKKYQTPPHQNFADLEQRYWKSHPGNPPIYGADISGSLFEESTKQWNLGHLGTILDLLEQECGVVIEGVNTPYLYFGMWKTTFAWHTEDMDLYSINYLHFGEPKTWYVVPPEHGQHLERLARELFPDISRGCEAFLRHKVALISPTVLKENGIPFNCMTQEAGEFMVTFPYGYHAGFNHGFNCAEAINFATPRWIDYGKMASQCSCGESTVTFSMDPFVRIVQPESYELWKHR
Protocol: as §1, §2, §3

KDM3C = test: LC-MS demethylation activity assay, KDM3C; assay type: biochemical, human; settings: 2 μM KDM, 10 μM H1/H3 peptide, 10 μM FAS, 100 μM LAA, 20 μM 2OG, 50 mM HEPES pH 7.5, 2 h, room temperature
Protocol: as §1, §2, §3

KDM3A = test: LC-MS demethylation activity assay, KDM3A; assay type: biochemical, human; settings: 2 μM KDM, 10 μM H1/H3 peptide, 10 μM FAS, 100 μM LAA, 20 μM 2OG, 50 mM HEPES pH 7.5, 2 h, room temperature
Protocol: as §1, §2, §3

KDM6B = test: LC-MS demethylation activity assay, KDM6B; assay type: biochemical, human; settings: 2 μM KDM, 10 μM H1/H3 peptide, 10 μM FAS, 100 μM LAA, 20 μM 2OG, 50 mM HEPES pH 7.5, 2 h, room temperature
Protocol: as §1, §2, §3

KDM3B = test: LC-MS demethylation activity assay, KDM3B; assay type: biochemical, human; settings: 2 μM KDM, 10 μM H1/H3 peptide, 10 μM FAS, 100 μM LAA, 20 μM 2OG, 50 mM HEPES pH 7.5, 2 h, room temperature
Protocol: as §1, §2, §3

[1] = T (tri-) initial methylation state
[2] = 2 μM KDM, 10 μM H1/H3 peptide, 50 mM HEPES pH 7.5, 2 h, T (tri-) initial methylation state
[3] = 2 μM KDM4D, 10 μM peptide, standard conditions, 2 h
[4] = D (di-) initial methylation state
[5] = 2 μM KDM, 10 μM H1/H3 peptide, 50 mM HEPES pH 7.5, 2 h, D (di-) initial methylation state
[6] = M (mono-) initial methylation state
[7] = 2 μM KDM, 10 μM H1/H3 peptide, 50 mM HEPES pH 7.5, 2 h, M (mono-) initial methylation state

## KKKAK[Lys(Me3)]AGATAGKRK [Peptide H1.3K25me3, 15-mer linker histone H1.3 residues 20-34 peptide, tri-methylated K25]
KDM5D; [1]
  KDM5D demethylation activity, T: ● [red]
KDM4A
  substrate conversion (demethylation) by KDM4A: < 10%
KDM4A; [2]
  KDM4A demethylation activity, T: ● [black] (black dots indicate low-level demethylation (<10% conversion))
KDM4D; [3]
  KDM4D demethylation activity, in words: No activity was observed
  di-methylated product formed by KDM4D: < 5%
KDM4D; 2 μM KDM, 10 μM H1/H3 peptide, 10 μM FAS, 100 μM LAA, 20 μM 2OG, 50 mM HEPES pH 7.5, 2 h, T (tri-) initial methylation state
  KDM4D demethylation activity, T: ● [red]
KDM4E
  substrate conversion (demethylation) by KDM4E: < 10%
KDM4E; [2]
  KDM4E demethylation activity, T: ● [black] (black dots indicate low-level demethylation (<10% conversion))
KDM3C; [1]
  KDM3C demethylation activity, T: ● [red]
KDM3A; [1]
  KDM3A demethylation activity, T: ● [red]
KDM6B; [1]
  KDM6B demethylation activity, T: ● [red]
KDM3B; [1]
  KDM3B demethylation activity, T: ● [red]

## KKKAR[Lys(Me2)]SAGAAKRKA [Peptide H1.4K25me2, 15-mer linker histone H1.4 residues 20-34 peptide, di-methylated K25]
KDM5D; [4]
  KDM5D demethylation activity, D: ● [red]
KDM4A
  substrate conversion (demethylation) by KDM4A: ~20%
KDM4A; [5]
  KDM4A demethylation activity, D: ● [black] (black dots indicate low-level demethylation (<10% conversion))
KDM4D; 2 μM KDM4D, 10 μM peptide, 10 μM FAS, 100 μM LAA, 20 μM 2OG, HEPES pH 7.5, 2 h
  substrate conversion (demethylation) by KDM4D: > 40%
KDM4D; 2 μM KDM, 10 μM H1/H3 peptide, 10 μM FAS, 100 μM LAA, 20 μM 2OG, 50 mM HEPES pH 7.5, 2 h, D (di-) initial methylation state
  KDM4D demethylation activity, D: ● [yellow] (yellow dots indicate moderate demethylation (<50% conversion))
KDM4E
  substrate conversion (demethylation) by KDM4E: ~50%
KDM4E; [5]
  KDM4E demethylation activity, D: ● [red]
KDM3C; [4]
  KDM3C demethylation activity, D: ● [red]
KDM3A; [4]
  KDM3A demethylation activity, D: ● [red]
KDM6B; [4]
  KDM6B demethylation activity, D: ● [red]
KDM3B; [4]
  KDM3B demethylation activity, D: ● [red]

## KKKATKKmeAAGAGAAK [Peptide H1.5K26me, 15-mer linker histone H1.5 residues 20-34 peptide, mono-methylated K26]
KDM5D; [6]
  KDM5D demethylation activity, M: ● [red]
KDM4A; [7]
  KDM4A demethylation activity, M: ● [red]
KDM4D; 2 μM KDM, 10 μM H1/H3 peptide, 10 μM FAS, 100 μM LAA, 20 μM 2OG, 50 mM HEPES pH 7.5, 2 h, M (mono-) initial methylation state
  KDM4D demethylation activity, M: ● [red]
KDM4E; [7]
  KDM4E demethylation activity, M: ● [red]
KDM3C; [6]
  KDM3C demethylation activity, M: ● [red]
KDM3A; [6]
  KDM3A demethylation activity, M: ● [red]
KDM6B; [6]
  KDM6B demethylation activity, M: ● [red]
KDM3B; [6]
  KDM3B demethylation activity, M: ● [red]
